± gives the expanded uncertainty stated by the source.
Test: xn = mol fraction of the nth substance listed
Details: Liquid, Vibrating wire viscometry, x1 = 1

CCCCO [butan-1-ol] + CC(C)CC(C)(C)C
viscosity (293.15 K, 100 kPa): 2.969 ± 0.047 mPa·s | viscosity (293.15 K, 1000 kPa): 3.001 ± 0.048 mPa·s | viscosity (293.15 K, 5000 kPa): 3.108 ± 0.049 mPa·s | viscosity (293.15 K, 10000 kPa): 3.244 ± 0.052 mPa·s | viscosity (293.15 K, 20000 kPa): 3.479 ± 0.055 mPa·s | viscosity (293.15 K, 30000 kPa): 3.788 ± 0.06 mPa·s | viscosity (293.15 K, 40000 kPa): 4.078 ± 0.065 mPa·s | viscosity (293.15 K, 50000 kPa): 4.401 ± 0.07 mPa·s | viscosity (293.15 K, 60000 kPa): 4.74 ± 0.075 mPa·s | viscosity (293.15 K, 70000 kPa): 5.076 ± 0.08 mPa·s | viscosity (293.15 K, 80000 kPa): 5.438 ± 0.086 mPa·s | viscosity (293.15 K, 100000 kPa): 6.164 ± 0.097 mPa·s | viscosity (293.15 K, 120000 kPa): 6.979 ± 0.11 mPa·s | viscosity (293.15 K, 140000 kPa): 7.843 ± 0.12 mPa·s | viscosity (298.15 K, 100 kPa): 2.601 ± 0.042 mPa·s | viscosity (298.15 K, 1000 kPa): 2.622 ± 0.042 mPa·s | viscosity (298.15 K, 5000 kPa): 2.715 ± 0.043 mPa·s | viscosity (298.15 K, 10000 kPa): 2.834 ± 0.045 mPa·s | viscosity (298.15 K, 20000 kPa): 3.079 ± 0.049 mPa·s | viscosity (298.15 K, 30000 kPa): 3.333 ± 0.053 mPa·s | viscosity (298.15 K, 40000 kPa): 3.599 ± 0.057 mPa·s | viscosity (298.15 K, 50000 kPa): 3.874 ± 0.061 mPa·s | viscosity (298.15 K, 60000 kPa): 4.16 ± 0.066 mPa·s | viscosity (298.15 K, 70000 kPa): 4.455 ± 0.071 mPa·s | viscosity (298.15 K, 80000 kPa): 4.761 ± 0.075 mPa·s | viscosity (298.15 K, 100000 kPa): 5.404 ± 0.085 mPa·s | viscosity (298.15 K, 120000 kPa): 6.087 ± 0.096 mPa·s | viscosity (298.15 K, 140000 kPa): 6.811 ± 0.11 mPa·s | viscosity (313.15 K, 100 kPa): 1.797 ± 0.029 mPa·s | viscosity (313.15 K, 1000 kPa): 1.813 ± 0.029 mPa·s | viscosity (313.15 K, 5000 kPa): 1.89 ± 0.03 mPa·s | viscosity (313.15 K, 10000 kPa): 1.967 ± 0.032 mPa·s | viscosity (313.15 K, 20000 kPa): 2.14 ± 0.034 mPa·s | viscosity (313.15 K, 30000 kPa): 2.319 ± 0.037 mPa·s | viscosity (313.15 K, 40000 kPa): 2.48 ± 0.04 mPa·s | viscosity (313.15 K, 50000 kPa): 2.629 ± 0.042 mPa·s | viscosity (313.15 K, 60000 kPa): 2.852 ± 0.045 mPa·s | viscosity (313.15 K, 70000 kPa): 3.089 ± 0.049 mPa·s | viscosity (313.15 K, 80000 kPa): 3.247 ± 0.052 mPa·s | viscosity (313.15 K, 100000 kPa): 3.686 ± 0.058 mPa·s | viscosity (313.15 K, 120000 kPa): 4.192 ± 0.066 mPa·s | viscosity (313.15 K, 140000 kPa): 4.638 ± 0.073 mPa·s | viscosity (323.15 K, 100 kPa): 1.429 ± 0.023 mPa·s | viscosity (323.15 K, 1000 kPa): 1.44 ± 0.024 mPa·s | viscosity (323.15 K, 5000 kPa): 1.491 ± 0.024 mPa·s | viscosity (323.15 K, 10000 kPa): 1.556 ± 0.025 mPa·s | viscosity (323.15 K, 20000 kPa): 1.69 ± 0.027 mPa·s | viscosity (323.15 K, 30000 kPa): 1.829 ± 0.03 mPa·s | viscosity (323.15 K, 40000 kPa): 1.975 ± 0.032 mPa·s | viscosity (323.15 K, 50000 kPa): 2.125 ± 0.034 mPa·s | viscosity (323.15 K, 60000 kPa): 2.281 ± 0.037 mPa·s | viscosity (323.15 K, 70000 kPa): 2.443 ± 0.039 mPa·s | viscosity (323.15 K, 80000 kPa): 2.61 ± 0.042 mPa·s | viscosity (323.15 K, 100000 kPa): 2.962 ± 0.047 mPa·s | viscosity (323.15 K, 120000 kPa): 3.335 ± 0.053 mPa·s | viscosity (323.15 K, 140000 kPa): 3.682 ± 0.058 mPa·s | viscosity (333.15 K, 100 kPa): 1.156 ± 0.019 mPa·s | viscosity (333.15 K, 1000 kPa): 1.172 ± 0.019 mPa·s | viscosity (333.15 K, 5000 kPa): 1.227 ± 0.02 mPa·s | viscosity (333.15 K, 10000 kPa): 1.29 ± 0.021 mPa·s | viscosity (333.15 K, 20000 kPa): 1.389 ± 0.023 mPa·s | viscosity (333.15 K, 30000 kPa): 1.504 ± 0.025 mPa·s | viscosity (333.15 K, 40000 kPa): 1.624 ± 0.026 mPa·s | viscosity (333.15 K, 50000 kPa): 1.741 ± 0.028 mPa·s | viscosity (333.15 K, 60000 kPa): 1.867 ± 0.03 mPa·s | viscosity (333.15 K, 70000 kPa): 2.014 ± 0.032 mPa·s | viscosity (333.15 K, 80000 kPa): 2.137 ± 0.034 mPa·s | viscosity (333.15 K, 100000 kPa): 2.384 ± 0.038 mPa·s | viscosity (333.15 K, 120000 kPa): 2.633 ± 0.042 mPa·s | viscosity (333.15 K, 140000 kPa): 2.883 ± 0.046 mPa·s | viscosity (348.15 K, 100 kPa): 0.8579 ± 0.015 mPa·s | viscosity (348.15 K, 1000 kPa): 0.8647 ± 0.015 mPa·s | viscosity (348.15 K, 5000 kPa): 0.8956 ± 0.015 mPa·s | viscosity (348.15 K, 10000 kPa): 0.9349 ± 0.016 mPa·s | viscosity (348.15 K, 20000 kPa): 1.016 ± 0.017 mPa·s | viscosity (348.15 K, 30000 kPa): 1.101 ± 0.018 mPa·s | viscosity (348.15 K, 40000 kPa): 1.189 ± 0.02 mPa·s | viscosity (348.15 K, 50000 kPa): 1.28 ± 0.021 mPa·s | viscosity (348.15 K, 60000 kPa): 1.375 ± 0.023 mPa·s | viscosity (348.15 K, 70000 kPa): 1.473 ± 0.024 mPa·s | viscosity (348.15 K, 80000 kPa): 1.575 ± 0.026 mPa·s | viscosity (348.15 K, 100000 kPa): 1.788 ± 0.029 mPa·s | viscosity (348.15 K, 120000 kPa): 2.015 ± 0.032 mPa·s | viscosity (348.15 K, 140000 kPa): 2.255 ± 0.036 mPa·s | viscosity (353.15 K, 100 kPa): 0.7903 ± 0.014 mPa·s | viscosity (353.15 K, 1000 kPa): 0.7943 ± 0.014 mPa·s | viscosity (353.15 K, 5000 kPa): 0.8284 ± 0.014 mPa·s | viscosity (353.15 K, 10000 kPa): 0.8637 ± 0.015 mPa·s | viscosity (353.15 K, 20000 kPa): 0.9473 ± 0.016 mPa·s | viscosity (353.15 K, 30000 kPa): 1.04 ± 0.017 mPa·s | viscosity (353.15 K, 40000 kPa): 1.102 ± 0.018 mPa·s | viscosity (353.15 K, 50000 kPa): 1.21 ± 0.02 mPa·s | viscosity (353.15 K, 60000 kPa): 1.295 ± 0.021 mPa·s | viscosity (353.15 K, 70000 kPa): 1.384 ± 0.023 mPa·s | viscosity (353.15 K, 80000 kPa): 1.473 ± 0.024 mPa·s | viscosity (353.15 K, 100000 kPa): 1.676 ± 0.027 mPa·s | viscosity (353.15 K, 120000 kPa): 1.857 ± 0.03 mPa·s | viscosity (353.15 K, 140000 kPa): 2.037 ± 0.033 mPa·s

From the NIST ThermoML archive (doi:10.1016/j.jct.2016.07.008)
